# Target: T1, hMAGL (Homo sapiens, UniProt Q99685)
# T1 sequence (Q99685 1-303): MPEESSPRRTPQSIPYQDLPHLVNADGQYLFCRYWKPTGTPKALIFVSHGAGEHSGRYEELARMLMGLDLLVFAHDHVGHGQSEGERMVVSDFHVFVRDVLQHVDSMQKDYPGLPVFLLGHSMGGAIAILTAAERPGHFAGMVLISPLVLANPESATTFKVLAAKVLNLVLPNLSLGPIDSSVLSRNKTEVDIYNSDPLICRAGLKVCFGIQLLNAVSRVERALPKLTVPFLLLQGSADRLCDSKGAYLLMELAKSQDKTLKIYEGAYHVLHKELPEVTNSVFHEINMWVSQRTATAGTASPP
# Experiment: 2-AG assay: MAGL inhibition, hydrolysis of 2-arachidonoylglycerol to arachidonic acid followed by mass spectrometry
# Assay type: biochemical
# Method: Compounds of formula (I) were profiled for MAGL inhibitory activity by determining the enzymatic activity by following the hydrolysis of the natural substrate 2-arachidonoylglycerol (2-AG) resulting in arachidonic acid, which can be followed by mass spectrometry. This assay is hereinafter abbreviated “2-AG assay”. The 2-AG assay was carried out in 384 well polypropylene assay plates. […] Compound dilutions were added to MAGL protein in assay buffer (50 mM TRIS, 1 mM EDTA, 0.01% (v/v) Tween-20, 2.5% (v/v) DMSO). After shaking, the plate was incubated for 15 min at RT. To start the reaction, 2-arachidonoylglycerol in assay buffer was added. The final concentrations in the assay was […] for MAGL protein and 8 μM 2-arachidonoylglyerol. After shaking and 30 min incubation at RT, the reaction was quenched by the addition of two assay volumes of acetonitrile containing 4 μM of d8-arachidonic acid. The amount of arachidonic acid formed was traced by an online SPE system (Agilent Rapidfire) coupled to a triple quadrupole mass spectrometer. A C18 SPE cartridge (Agilent G9205A) was used in an acetonitrile/water liquid setup. […] The activity of the compounds was calculated based on the ratio of intensities [arachidonic acid/d8-arachidonic acid].
row,IC50 [µM],Compound
1,0.0694,"O=C(N1CC2(CC(Cc3nc(CC(F)(F)F)n[nH]3)C2)C1)N1CC2(CC(n3cnc(C(F)F)n3)C2)C1 [Example 316, [6-[3-(difluoromethyl)-1,2,4-triazol-1-yl]-2-azaspiro[3.3]heptan-2-yl]-[6-[[3-(2,2,2-trifluoroethyl)-1H-1,2,4-triazol-5-yl]methyl]-2-azaspiro[3.3]heptan-2-yl]methanone]"
2,0.00243,"Cn1nc(C(F)(F)F)cc1CC1CC2(C1)CN(C(=O)N1CC3(CC(n4cnc(C5(O)CC5)n4)C3)C1)C2 [Example 288, [6-[3-(1-hydroxycyclopropyl)-1,2,4-triazol-1-yl]-2-azaspiro[3.3]heptan-2-yl]-[6-[[2-methyl-5-(trifluoromethyl)pyrazol-3-yl]methyl]-2-azaspiro[3.3]heptan-2-yl]methanone]"
3,0.00326,"O=C(N1CC2(CC(Cc3cc(C4CC4)[nH]n3)C2)C1)N1CC2(CC(n3cnc(C(F)F)n3)C2)C1 [Example 342, [6-[(5-cyclopropyl-1H-pyrazol-3-yl)methyl]-2-azaspiro[3.3]heptan-2-yl]-[6-[3-(difluoromethyl)-1,2,4-triazol-1-yl]-2-azaspiro[3.3]heptan-2-yl]methanone]"
4,0.0187,"O=C(N1CC2(CC(n3cnc(C(F)(F)F)n3)C2)C1)N1CC2(CN(Cc3cc(C(F)(F)F)[nH]n3)C2)C1 [Example 241, [6-[[5-(trifluoromethyl)-1H-pyrazol-3-yl]methyl]-2,6-diazaspiro[3.3]heptan-2-yl]-[6-[3-(trifluoromethyl)-1,2,4-triazol-1-yl]-2-azaspiro[3.3]heptan-2-yl]methanone]"
5,0.00398,"Cn1ncc(OC2CC3(C2)CN(C(=O)N2CC4(CC(n5cnc(C(F)(F)F)n5)C4)C2)C3)c1C(F)(F)F [Example 246, [6-[1-methyl-5-(trifluoromethyl)pyrazol-4-yl]oxy-2-azaspiro[3.3]heptan-2-yl]-[6-[3-(trifluoromethyl)-1,2,4-triazol-1-yl]-2-azaspiro[3.3]heptan-2-yl]methanone]"
6,0.123,"Cn1c(CN2CC3(C2)CN(C(=O)N2CC4(CC(n5cnc(C(F)(F)F)n5)C4)C2)C3)nnc1C(F)(F)F [Example 314, [6-[[4-methyl-5-(trifluoromethyl)-1,2,4-triazol-3-yl]methyl]-2,6-diazaspiro[3.3]heptan-2-yl]-[6-[3-(trifluoromethyl)-1,2,4-triazol-1-yl]-2-azaspiro[3.3]heptan-2-yl]methanone]"
7,0.00021,Cc1cc(C(F)F)n(CC2CC3(C2)CN(C(=O)N2CC4(CC(n5cnc(C6CC6)n5)C4)C2)C3)n1 [Example 92]
8,0.0004,Cc1cc(C(F)F)nn1CC1CC2(C1)CN(C(=O)N1CC3(CC(n4cnc(C(F)(F)F)n4)C3)C1)C2 [Example 94]
9,0.00891,"O=C(N1CC2(CC(Cc3cn(CC(F)(F)F)nn3)C2)C1)N1CC2(CC(n3cnc(C(F)(F)F)n3)C2)C1 [Example 336, [6-[[1-(2,2,2-trifluoroethyl)triazol-4-yl]methyl]-2-azaspiro[3.3]heptan-2-yl]-[6-[3-(trifluoromethyl)-1,2,4-triazol-1-yl]-2-azaspiro[3.3]heptan-2-yl]methanone]"
10,0.0137,"O=C(N1CC2(CC(n3cnc(C4CC4)n3)C2)C1)N1CC2(CN(Cc3nc(C(F)(F)F)co3)C2)C1 [Example 217, [6-(3-cyclopropyl-1,2,4-triazol-1-yl)-2-azaspiro[3.3]heptan-2-yl]-[6-[[4-(trifluoromethyl)oxazol-2-yl]methyl]-2,6-diazaspiro[3.3]heptan-2-yl]methanone]"
11,0.351,"Cc1nc(C(F)(F)F)c(CN2CC3(C2)CN(C(=O)N2CC4(CC(n5cnc(C6(O)CC6)n5)C4)C2)C3)s1 [Example 87, [6-[3-(1-hydroxycyclopropyl)-1,2,4-triazol-1-yl]-2-azaspiro[3.3]heptan-2-yl]-[6-[[2-methyl-4-(trifluoromethyl)thiazol-5-yl]methyl]-2,6-diazaspiro[3.3]heptan-2-yl]methanone]"
12,0.539,"O=C(N1CC2(CC(n3cnc(C(F)(F)F)n3)C2)C1)N1CC2(CN(Cc3cnn(C(F)F)c3)C2)C1 [Example 262, [6-[[1-(difluoromethyl)pyrazol-4-yl]methyl]-2,6-diazaspiro[3.3]heptan-2-yl]-[6-[3-(trifluoromethyl)-1,2,4-triazol-1-yl]-2-azaspiro[3.3]heptan-2-yl]methanone]"
13,0.00239,"Cn1nc(CN2CC3(C2)CN(C(=O)N2CC4(CC(n5cnc(C(F)(F)F)n5)C4)C2)C3)cc1C(F)(F)F [Example 161, [6-[[1-methyl-5-(trifluoromethyl)pyrazol-3-yl]methyl]-2,6-diazaspiro[3.3]heptan-2-yl]-[6-[3-(trifluoromethyl)-1,2,4-triazol-1-yl]-2-azaspiro[3.3]heptan-2-yl]methanone]"
14,0.176,"O=C(N1CC2(CC(n3cnc(C(F)(F)F)n3)C2)C1)N1CC2(CN(Cc3nccn3CC(F)(F)F)C2)C1 [Example 233, [6-[[1-(2,2,2-trifluoroethyl)imidazol-2-yl]methyl]-2,6-diazaspiro[3.3]heptan-2-yl]-[6-[3-(trifluoromethyl)-1,2,4-triazol-1-yl]-2-azaspiro[3.3]heptan-2-yl]methanone]"
15,0.00394,"O=C(N1CC2(CC(n3cnc(C4CC4)n3)C2)C1)N1CC2(CN(Cc3ncc(C(F)F)s3)C2)C1 [Example 188, [6-(3-cyclopropyl-1,2,4-triazol-1-yl)-2-azaspiro[3.3]heptan-2-yl]-[6-[[5-(difluoromethyl)thiazol-2-yl]methyl]-2,6-diazaspiro[3.3]heptan-2-yl]methanone]"
16,1.37,"Cn1cc(OC2CC3(C2)CN(C(=O)N2CC4(CC(n5cnc(C6(O)CC6)n5)C4)C2)C3)cn1 [Example 88, [6-[3-(1-hydroxycyclopropyl)-1,2,4-triazol-1-yl]-2-azaspiro[3.3]heptan-2-yl]-[6-(1-methylpyrazol-4-yl)oxy-2-azaspiro[3.3]heptan-2-yl]methanone]"
17,0.205,O=C(N1CC2(CC(n3cnc(C(F)(F)F)n3)C2)C1)N1CC2(CN(Cc3ccnn3CC(F)(F)F)C2)C1 [Example 222]
18,0.0181,O=C(N1CC2(CC(Cc3nc(C(F)(F)F)no3)C2)C1)N1CC2(CC(n3cnc(C4(O)CC4)n3)C2)C1 [Example 138]
19,0.0231,"O=C(N1CC2(CC(Cn3ncnc3C(F)(F)F)C2)C1)N1CC2(CC(n3cnc(C4(O)CC4)n3)C2)C1 [Example 325, [6-[3-(1-hydroxycyclopropyl)-1,2,4-triazol-1-yl]-2-azaspiro[3.3]heptan-2-yl]-[6-[[5-(trifluoromethyl)-1,2,4-triazol-1-yl]methyl]-2-azaspiro[3.3]heptan-2-yl]methanone]"
20,0.00651,Cn1nc(C(F)(F)F)cc1CN1CCC2(CC1)CN(C(=O)N1CC3(CC(c4cc(C5CC5)n[nH]4)C3)C1)C2 [Example 24]
21,0.00212,"Cn1ncc(C(F)(F)F)c1CN1CCC2(CC1)CN(C(=O)N1CC3(CC(n4cnc(C5(O)CC5)n4)C3)C1)C2 [Example 67, [6-[3-(1-hydroxycyclopropyl)-1,2,4-triazol-1-yl]-2-azaspiro[3.3]heptan-2-yl]-[7-[[2-methyl-4-(trifluoromethyl)pyrazol-3-yl]methyl]-2,7-diazaspiro[3.5]nonan-2-yl]methanone]"
22,0.00034,"O=C(N1CC2(CC(Cc3cc(C4CC4)n[nH]3)C2)C1)N1CC2(CC(n3cnc(C(F)(F)F)n3)C2)C1 [Example 123, [6-[(3-cyclopropyl-1H-pyrazol-5-yl)methyl]-2-azaspiro[3.3]heptan-2-yl]-[6-[3-(trifluoromethyl)-1,2,4-triazol-1-yl]-2-azaspiro[3.3]heptan-2-yl]methanone]"
23,0.0554,"Cn1cc(OC2CC3(C2)CN(C(=O)N2CC4(CC(n5cnc(C6(O)CC6)n5)C4)C2)C3)c(C(F)(F)F)n1 [Example 59, [6-[3-(1-hydroxycyclopropyl)-1,2,4-triazol-1-yl]-2-azaspiro[3.3]heptan-2-yl]-[6-[1-methyl-3-(trifluoromethyl)pyrazol-4-yl]oxy-2-azaspiro[3.3]heptan-2-yl]methanone]"
24,0.00262,"O=C(N1CC2(CC(n3cnc(C4CC4)n3)C2)C1)N1CC2(CN(Cc3nc(C(F)(F)F)cs3)C2)C1 [Example 53, [6-(3-cyclopropyl-1,2,4-triazol-1-yl)-2-azaspiro[3.3]heptan-2-yl]-[6-[[4-(trifluoromethyl)thiazol-2-yl]methyl]-2,6-diazaspiro[3.3]heptan-2-yl]methanone]"
25,2.86,"Cn1cnc(CN2CC3(C2)CN(C(=O)N2CC4(CC(n5cnc(C6CC6)n5)C4)C2)C3)c1 [Example 305, [6-(3-cyclopropyl-1,2,4-triazol-1-yl)-2-azaspiro[3.3]heptan-2-yl]-[6-[(1-methylimidazol-4-yl)methyl]-2,6-diazaspiro[3.3]heptan-2-yl]methanone]"
26,0.00178,O=C(N1CC2(CC(n3cnc(C(F)(F)F)n3)C2)C1)N1CC2(CN(Cc3ncc(C(F)(F)F)s3)C2)C1 [Example 149]

# — patent US20260374756A1, “HETEROCYCLIC COMPOUNDS AS INHIBITORS OF MONOACYLGLYCEROL LIPASE (MAGL)” (Hoffmann-La Roche Inc., priority 2022, published 2026)
